Reference: patent US20230365592A1 (Agios Pharmaceuticals, Inc., priority 2022, published 2023)

Target: T1, human PAH with the R408W mutation (Homo sapiens, UniProt P00439, R408W)
T1 construct: expressed in transfected cells
T1 sequence (P00439 1-452 R408W): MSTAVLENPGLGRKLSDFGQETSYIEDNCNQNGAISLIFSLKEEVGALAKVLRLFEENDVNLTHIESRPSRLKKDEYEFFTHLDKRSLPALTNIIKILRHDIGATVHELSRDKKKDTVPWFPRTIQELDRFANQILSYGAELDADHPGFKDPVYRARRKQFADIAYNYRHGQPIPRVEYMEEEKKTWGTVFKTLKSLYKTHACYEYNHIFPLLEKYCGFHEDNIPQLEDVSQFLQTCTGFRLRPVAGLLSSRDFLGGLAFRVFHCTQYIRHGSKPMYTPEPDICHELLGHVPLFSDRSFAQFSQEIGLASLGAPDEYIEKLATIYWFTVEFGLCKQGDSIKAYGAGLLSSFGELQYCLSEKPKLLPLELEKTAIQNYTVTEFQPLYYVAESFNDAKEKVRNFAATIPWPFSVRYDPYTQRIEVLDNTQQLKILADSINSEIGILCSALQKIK
Experiment: Cell Based Phenylalanine Flux Assay;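 note: after compound treatment, cells received sepiapterin plus isotope-labelled Phenylalanine for 4 hours, then labelled Tyrosine in the medium was quantified, 10-point 2-fold dilution series run in duplicate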
Settings: A375 cells expressing human R408W PAH; 24 hrs compound incubation; 13C-Tyrosine by LC-MS; average where tested multiple times; read-out: AC50

Compound | AC50 [µM]
O=C(c1nnc(-c2ccn(C(F)(F)F)n2)o1)N1CCc2[nH]cnc2[C@H]1c1cc2cccc(C(F)F)n2n1 [Example 1544, (S)-(4-(7-(difluoromethyl)pyrazolo[1,5-a]pyridin-2-yl)-6,7-dihydro-1H-imidazo[4,5-c]pyridin-5(4H)-yl)(5-(1-(trifluoromethyl)-1H-pyrazol-3-yl)-1,3,4-oxadiazol-2-yl)methanone] | < 0.5
CN(C)Cc1ccc2c(C(=O)N3CCc4[nH]cnc4[C@H]3c3cc4c(C(F)(F)F)cccn4n3)cnn2c1 [Example 1546, (S)-(6-((dimethylamino)methyl)pyrazolo[1,5-a]pyridin-3-yl)(4-(4-(trifluoromethyl)pyrazolo[1,5-a]pyridin-2-yl)-6,7-dihydro-1H-imidazo[4,5-c]pyridin-5(4H)-yl)methanone] | 0.5 to 1
CN(C)Cc1ccc2c(C(=O)N3CCc4[nH]cnc4[C@@H]3c3cc4c(C(F)(F)F)cccn4n3)cnn2c1 [Example 1547, (R)-(6-((dimethylamino)methyl)pyrazolo[1,5-a]pyridin-3-yl)(4-(4-(trifluoromethyl)pyrazolo[1,5-a]pyridin-2-yl)-6,7-dihydro-1H-imidazo[4,5-c]pyridin-5(4H)-yl)methanone] | > 5
COCc1ccc2c(C(=O)N3CCc4[nH]cnc4[C@H]3c3cc4c(C(F)(F)F)cccn4n3)cnn2c1 [Example 1548, (S)-(6-(methoxymethyl)pyrazolo[1,5-a]pyridin-3-yl)(4-(4-(trifluoromethyl)pyrazolo[1,5-a]pyridin-2-yl)-6,7-dihydro-1H-imidazo[4,5-c]pyridin-5(4H)-yl)methanone] | 0.5 to 1
COCc1ccc2c(C(=O)N3CCc4[nH]cnc4[C@@H]3c3cc4c(C(F)(F)F)cccn4n3)cnn2c1 [Example 1549, (R)-(6-(methoxymethyl)pyrazolo[1,5-a]pyridin-3-yl)(4-(4-(trifluoromethyl)pyrazolo[1,5-a]pyridin-2-yl)-6,7-dihydro-1H-imidazo[4,5-c]pyridin-5(4H)-yl)methanone] | 1 to 5
O=C(c1cnn2cc(-c3ccccn3)ccc12)N1CCc2[nH]cnc2[C@@H]1c1cc2c(C(F)(F)F)cccn2n1 [Example 1551, (R)-(6-(pyridin-2-yl)pyrazolo[1,5-a]pyridin-3-yl)(4-(4-(trifluoromethyl)pyrazolo[1,5-a]pyridin-2-yl)-6,7-dihydro-1H-imidazo[4,5-c]pyridin-5(4H)-yl)methanone] | 1 to 5
Cc1cccn2nc([C@@H]3c4nc[nH]c4CCN3C(=O)c3nnc(C4CCC4)o3)cc12 [Example 1556, (S)-(5-cyclobutyl-1,3,4-oxadiazol-2-yl)(4-(4-methylpyrazolo[1,5-a]pyridin-2-yl)-6,7-dihydro-1H-imidazo[4,5-c]pyridin-5(4H)-yl)methanone] | < 0.5
Cc1cccn2nc([C@H]3c4nc[nH]c4CCN3C(=O)c3nnc(C4CCC4)o3)cc12 [Example 1557, (R)-(5-cyclobutyl-1,3,4-oxadiazol-2-yl)(4-(4-methylpyrazolo[1,5-a]pyridin-2-yl)-6,7-dihydro-1H-imidazo[4,5-c]pyridin-5(4H)-yl)methanone] | 1 to 5
O=C(c1nnc(C2CCC2)o1)N1CCc2[nH]cnc2[C@H]1c1cc2c(F)cccn2n1 [Example 1559, (S)-(5-cyclobutyl-1,3,4-oxadiazol-2-yl)(4-(4-fluoropyrazolo[1,5-a]pyridin-2-yl)-6,7-dihydro-1H-imidazo[4,5-c]pyridin-5(4H)-yl)methanone] | < 0.5
Cc1cnn(C)c1-c1nnc(C(=O)N2CCc3[nH]cnc3[C@@H]2c2cc3c(C(F)F)cccn3n2)o1 [Example 1569, (R)-(4-(4-(difluoromethyl)pyrazolo[1,5-a]pyridin-2-yl)-6,7-dihydro-1H-imidazo[4,5-c]pyridin-5(4H)-yl)(5-(1,4-dimethyl-1H-pyrazol-5-yl)-1,3,4-oxadiazol-2-yl)methanone] | > 5
O=C(c1nnc(-c2cnn(C(F)(F)F)c2)o1)N1CCc2[nH]cnc2[C@H]1c1cc2c(C(F)F)cccn2n1 [Example 1570, (S)-(4-(4-(difluoromethyl)pyrazolo[1,5-a]pyridin-2-yl)-6,7-dihydro-1H-imidazo[4,5-c]pyridin-5(4H)-yl)(5-(1-(trifluoromethyl)-1H-pyrazol-4-yl)-1,3,4-oxadiazol-2-yl)methanone] | < 0.5
O=C(c1nnc(-c2cnn(C(F)(F)F)c2)o1)N1CCc2[nH]cnc2[C@@H]1c1cc2c(C(F)F)cccn2n1 [Example 1571, (R)-(4-(4-(difluoromethyl)pyrazolo[1,5-a]pyridin-2-yl)-6,7-dihydro-1H-imidazo[4,5-c]pyridin-5(4H)-yl)(5-(1-(trifluoromethyl)-1H-pyrazol-4-yl)-1,3,4-oxadiazol-2-yl)methanone] | 1 to 5

The next lines start with the values.

AC50 [µM] | Compound
1 to 5 | O=C(c1nnc(-c2ccn(C(F)(F)F)n2)o1)N1CCc2[nH]cnc2[C@@H]1c1cc2cccc(C(F)F)n2n1 [Example 1545, (R)-(4-(7-(difluoromethyl)pyrazolo[1,5-a]pyridin-2-yl)-6,7-dihydro-1H-imidazo[4,5-c]pyridin-5(4H)-yl)(5-(1-(trifluoromethyl)-1H-pyrazol-3-yl)-1,3,4-oxadiazol-2-yl)methanone]
1 to 5 | CC(C)c1nnc(C(=O)N2CCc3[nH]cnc3[C@H]2c2cc3cccc(F)n3n2)o1 [Example 1555, (S)-(4-(7-fluoropyrazolo[1,5-a]pyridin-2-yl)-6,7-dihydro-1H-imidazo[4,5-c]pyridin-5(4H)-yl)(5-isopropyl-1,3,4-oxadiazol-2-yl)methanone]
> 5 | O=C(c1nnc(C2CCC2)o1)N1CCc2[nH]cnc2[C@@H]1c1cc2cccc(Cl)n2n1 [Example 1560, (R)-(4-(7-chloropyrazolo[1,5-a]pyridin-2-yl)-6,7-dihydro-1H-imidazo[4,5-c]pyridin-5(4H)-yl)(5-cyclobutyl-1,3,4-oxadiazol-2-yl)methanone]
< 0.5 | O=C(c1nnc(C2CCC2)o1)N1CCc2[nH]cnc2[C@H]1c1cc2cccc(Cl)n2n1 [Example 1561, (S)-(4-(7-chloropyrazolo[1,5-a]pyridin-2-yl)-6,7-dihydro-1H-imidazo[4,5-c]pyridin-5(4H)-yl)(5-cyclobutyl-1,3,4-oxadiazol-2-yl)methanone]
0.5 to 1 | Cc1cccc2cc([C@@H]3c4nc[nH]c4CCN3C(=O)c3nnc(C4CCC4)o3)nn12 [Example 1562, (S)-(5-cyclobutyl-1,3,4-oxadiazol-2-yl)(4-(7-methylpyrazolo[1,5-a]pyridin-2-yl)-6,7-dihydro-1H-imidazo[4,5-c]pyridin-5(4H)-yl)methanone]
1 to 5 | Cc1cccc2cc([C@H]3c4nc[nH]c4CCN3C(=O)c3nnc(C4CCC4)o3)nn12 [Example 1563, (R)-(5-cyclobutyl-1,3,4-oxadiazol-2-yl)(4-(7-methylpyrazolo[1,5-a]pyridin-2-yl)-6,7-dihydro-1H-imidazo[4,5-c]pyridin-5(4H)-yl)methanone]
> 5 | Cc1cc(-c2nnc(C(=O)N3CCc4[nH]cnc4[C@@H]3c3cc4cccc(F)n4n3)o2)nn1C [Example 1564, (R)-(5-(1,5-dimethyl-1H-pyrazol-3-yl)-1,3,4-oxadiazol-2-yl)(4-(7-fluoropyrazolo[1,5-a]pyridin-2-yl)-6,7-dihydro-1H-imidazo[4,5-c]pyridin-5(4H)-yl)methanone]
0.5 to 1 | Cc1nn(C)cc1-c1nnc(C(=O)N2CCc3[nH]cnc3[C@H]2c2cc3cccc(F)n3n2)o1 [Example 1566, (S)-(5-(1,3-dimethyl-1H-pyrazol-4-yl)-1,3,4-oxadiazol-2-yl)(4-(7-fluoropyrazolo[1,5-a]pyridin-2-yl)-6,7-dihydro-1H-imidazo[4,5-c]pyridin-5(4H)-yl)methanone]
1 to 5 | Cc1nn(C)cc1-c1nnc(C(=O)N2CCc3[nH]cnc3[C@@H]2c2cc3cccc(F)n3n2)o1 [Example 1567, (R)-(5-(1,3-dimethyl-1H-pyrazol-4-yl)-1,3,4-oxadiazol-2-yl)(4-(7-fluoropyrazolo[1,5-a]pyridin-2-yl)-6,7-dihydro-1H-imidazo[4,5-c]pyridin-5(4H)-yl)methanone]
1 to 5 | O=C(c1nnc(C2CCC2)o1)N1CCc2[nH]cnc2[C@@H]1c1cc2cccc(C(F)F)n2n1 [Example 1572, (R)-(5-cyclobutyl-1,3,4-oxadiazol-2-yl)(4-(7-(difluoromethyl)pyrazolo[1,5-a]pyridin-2-yl)-6,7-dihydro-1H-imidazo[4,5-c]pyridin-5(4H)-yl)methanone]
0.5 to 1 | O=C(c1nnc(C2CCC2)o1)N1CCc2[nH]cnc2[C@H]1c1cc2cccc(C(F)F)n2n1 [Example 1573, (S)-(5-cyclobutyl-1,3,4-oxadiazol-2-yl)(4-(7-(difluoromethyl)pyrazolo[1,5-a]pyridin-2-yl)-6,7-dihydro-1H-imidazo[4,5-c]pyridin-5(4H)-yl)methanone]
1 to 5 | O=C(c1nnc(C2CCC2)o1)N1CCc2[nH]cnc2[C@@H]1c1cc2cccc(F)n2n1 [Example 1574, (R)-(5-cyclobutyl-1,3,4-oxadiazol-2-yl)(4-(7-fluoropyrazolo[1,5-a]pyridin-2-yl)-6,7-dihydro-1H-imidazo[4,5-c]pyridin-5(4H)-yl)methanone]
< 0.5 | O=C(c1nnc(C2CCC2)o1)N1CCc2[nH]cnc2[C@H]1c1cc2cccc(F)n2n1 [Example 1575, (S)-(5-cyclobutyl-1,3,4-oxadiazol-2-yl)(4-(7-fluoropyrazolo[1,5-a]pyridin-2-yl)-6,7-dihydro-1H-imidazo[4,5-c]pyridin-5(4H)-yl)methanone]
